Test results from patent US7772197B2, “1,3,5-triazines for treatment of viral diseases” (1,3,5-Triazines for Treatment of Viral Diseases, priority 2002, dated 2010).
Like-named read-outs stand apart in the source and are kept apart here.

Columns and labels:
[1] = system: HIV-1 LAI; assay: Treatment of HIV-1-infected MT-2 cells with nucleoside analogues, p24 ELISA; assay type: cell-based
Description: The strains of HIV-1 used for primary drug screening are HIV-1 LAI or the appropriate strain of NRTI resistant HIV for studies of cross-resistance. Virus was propagated on MT-2 cells at an multiplicity of infection (MOI) of 0.01 to generate virus stocks. Briefly, the MT-2 cells were suspended in RPMI 1640 media supplemented with 10% fetal bovine serum, streptomycin and penicillin (cRPMI) and grown in a 37° C. incubator containing 5% CO2. Serial dilution of the virus and infection of MT-2 cells were followed by an ELISA detecting the capsid protein of HIV-1 (p24) and used to determine the titer of the virus stocks (50% tissue culture infectious dose (TCID50)). The ELISA was performed according to the manufacturer's instructions. The MT-2 cells are also used for visualizing the cytopathic effects of HIV-1 growth (e.g. syncytia formation).
0.1 ml of a 3×10^5 cells/ml MT-2 cell suspension were seeded in 96-well plates at 3×10^4 cells/well. The compounds to be assayed were diluted in a separate 96-well at ten times (10×) the concentration needed for the screen. 22 μl of the 10× compounds was then added to the wells in triplicate except for six control wells, containing uninfected MT-2 cells alone (3 wells) and untreated HIV-infected MT-2 cells (3 wells). This was followed by the addition of HIV-1 at an MOI of 0.01, except for the three wells serving as the uninfected control. 0.1 ml of cRPMI was added to the uninfected well instead of virus. After the addition of virus, the 96-well plate was centrifuged at 1,200×g for two hours to enhance the adsorption of the virus by the MT-2 cells (see, e.g., O'Doherty, J. Virol. 74:10074-10080 (2000)). After the centrifugation step, the 96-well plate was then incubated in a 37° C. incubator containing 5% CO2 for three days. At the end of this time period the virus and cells were mixed by gentle pipetting followed by a 1 minute spin at 600×g to pellet the cells. The supernatant of each well was then serially diluted 1,000-fold into new 96-well plates to serve as inoculum for the next passage and assayed by ELISA for the amount of p24 produced. The next passage was performed as described above, except that the virus used to infect the cells was derived from the 1,000-fold dilution plate. To generate an EC50 value, half-log concentrations of mutagenic nucleoside or nucleotide analogue capable of eradicating virus in a single passage are tested as above to generate a dose-response curve.

[2] = target: T1, polymerase-α (Homo sapiens, UniProt P09884); assay: Substrate for cellular polymerase; assay type: biochemical; conditions: data not shown
T1 sequence (P09884 1-1462): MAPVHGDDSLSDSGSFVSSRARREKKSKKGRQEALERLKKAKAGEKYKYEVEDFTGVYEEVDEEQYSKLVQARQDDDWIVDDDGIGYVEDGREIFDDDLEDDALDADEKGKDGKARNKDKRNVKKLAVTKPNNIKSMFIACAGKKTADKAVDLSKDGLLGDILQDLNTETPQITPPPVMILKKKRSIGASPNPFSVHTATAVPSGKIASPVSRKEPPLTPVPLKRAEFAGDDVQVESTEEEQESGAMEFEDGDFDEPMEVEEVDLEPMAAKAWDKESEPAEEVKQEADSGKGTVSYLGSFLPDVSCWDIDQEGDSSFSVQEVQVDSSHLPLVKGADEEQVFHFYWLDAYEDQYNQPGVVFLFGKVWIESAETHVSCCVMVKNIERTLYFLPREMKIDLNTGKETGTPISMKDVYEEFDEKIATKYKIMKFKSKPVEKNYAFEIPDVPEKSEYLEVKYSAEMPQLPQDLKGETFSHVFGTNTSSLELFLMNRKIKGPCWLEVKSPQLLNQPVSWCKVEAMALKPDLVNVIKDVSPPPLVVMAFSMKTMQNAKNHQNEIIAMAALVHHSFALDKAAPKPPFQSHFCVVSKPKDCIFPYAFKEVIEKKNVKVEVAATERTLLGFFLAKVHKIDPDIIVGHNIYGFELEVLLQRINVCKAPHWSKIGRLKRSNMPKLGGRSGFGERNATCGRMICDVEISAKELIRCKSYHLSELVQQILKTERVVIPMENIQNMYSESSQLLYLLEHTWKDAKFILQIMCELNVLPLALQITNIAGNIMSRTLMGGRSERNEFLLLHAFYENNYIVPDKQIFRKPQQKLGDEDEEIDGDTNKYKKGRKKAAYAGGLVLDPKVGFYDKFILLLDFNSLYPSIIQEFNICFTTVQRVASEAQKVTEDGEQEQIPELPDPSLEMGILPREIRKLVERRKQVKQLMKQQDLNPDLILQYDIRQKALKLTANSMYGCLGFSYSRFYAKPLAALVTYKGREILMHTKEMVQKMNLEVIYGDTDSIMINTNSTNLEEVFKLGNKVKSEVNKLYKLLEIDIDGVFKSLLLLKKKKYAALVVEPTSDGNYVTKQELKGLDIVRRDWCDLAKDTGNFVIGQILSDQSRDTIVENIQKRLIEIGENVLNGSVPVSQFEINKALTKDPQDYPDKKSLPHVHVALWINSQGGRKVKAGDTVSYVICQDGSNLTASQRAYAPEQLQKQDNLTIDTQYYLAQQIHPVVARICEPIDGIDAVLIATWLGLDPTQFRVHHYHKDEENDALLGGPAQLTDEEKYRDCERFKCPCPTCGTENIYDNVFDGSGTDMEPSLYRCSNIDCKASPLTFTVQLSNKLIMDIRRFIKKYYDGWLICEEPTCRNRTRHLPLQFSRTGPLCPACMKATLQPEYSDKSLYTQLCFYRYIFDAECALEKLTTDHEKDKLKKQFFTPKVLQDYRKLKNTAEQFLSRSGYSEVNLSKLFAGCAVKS

[3] = system: hgprt gene in CHO (Chinese Hamster Ovary) cells; assay: hgprt assay, mutagenesis of cellular DNA, 6-thioguanine selection; assay type: cell-based; conditions: 1 mM, data not shown
Description: (Data not shown.) An hgprt assay was also performed to test mutagenesis of cellular DNA by DHAdC. The assay was performed on CHO (Chinese Hamster Ovary) cells and mutants were selected for resistance to 6-thioguanine (6-TG). EMS (ethyl methyl sulfonate), a known mutagen, was used as a positive control.

[4] = system: mitochondrial DNA; assay: Mitochondrial toxicity (lactate production, mitochondrial DNA); assay type: cell-based; conditions: highest dose tested, 320 μM, data not shown
Description: Mitochondrial toxicity is also a safety concern with nucleoside analogs. SN1212 was also analyzed for mitochondrial toxicity. […] (Data not shown.)

NC1=NC(=O)N([C@H]2C[C@H](O)[C@@H](CO)O2)CN1 [DHAdC, 1-(2-Deoxy-β-D-ribofuranosyl)-4-amino-1,2,5,6-tetrahydro-1,3,5-triazin-2-one]
EC50 ([1]; Human immunodeficiency virus 1, MT2, read-out: EC50 against HIV, against HIV, strain not stated, 'in the range of'): ~10 nM
EC50 ([1]; Human immunodeficiency virus 1, MT2, wild-type HIV strain LAI, MT-2 cells): 3000 nM
substrate for polymerase-α [2]: poor substrate
mutation frequency of cellular gene hgprt [3]: did not increase above background
mitochondrial toxicity (increase in lactate production or inhibition of mitochondrial DNA) [4]: does not demonstrate evidence of mitochondrial toxicity
